Entries after “also recorded” stand apart in the source; their conditions may differ. Read-outs that look alike come from different tables or passages of the source.
How the values were obtained:
[1] = assay type: in vivo, human; conditions: for Cmax: N-desmethyl sildenafil, after 2.5 mg IV bolus sildenafil; for observed maximum concentration of plasma sildenafil: 2.5 mg IV bolus
[2] = cited from earlier work
[3] = healthy volunteers; cited from earlier work
[4] = Tolerability and hemodynamics; assay type: in vivo, human; conditions: for tolerability / safety of IV sildenafil: both subjects, single 2.5 mg IV bolus injection
[5] = subject 1, 16 min after 2.5 mg IV bolus sildenafil
[6] = subject 1, 30 min after 2.5 mg IV bolus sildenafil
[7] = subject 1, 60 min after 2.5 mg IV bolus sildenafil
[8] = subject 1, 120 min after 2.5 mg IV bolus sildenafil
[9] = subject 1, 178 min after 2.5 mg IV bolus sildenafil
[10] = subject 1, 242 min after 2.5 mg IV bolus sildenafil
[11] = subject 1, 360 min after 2.5 mg IV bolus sildenafil
[12] = subject 1, 480 min after 2.5 mg IV bolus sildenafil
[13] = subject 2, 15 min after 2.5 mg IV bolus sildenafil
[14] = subject 2, 30 min after 2.5 mg IV bolus sildenafil
[15] = subject 2, 60 min after 2.5 mg IV bolus sildenafil
[16] = subject 2, 122 min after 2.5 mg IV bolus sildenafil
[17] = subject 2, 180 min after 2.5 mg IV bolus sildenafil
[18] = subject 2, 240 min after 2.5 mg IV bolus sildenafil
[19] = subject 2, 360 min after 2.5 mg IV bolus sildenafil
[20] = subject 2, 480 min after 2.5 mg IV bolus sildenafil

## CCCc1nn(C)c2c(=O)[nH]c(-c3cc(S(=O)(=O)N4CCNCC4)ccc3OCC)nc12 [N-desmethyl Sildenafil, N-desmethyl sildenafil]
[1]; subject 1
  Cmax: 2.6 ng/mL
[1]; subject 2
  Cmax: 1.1 ng/mL
[1]; plasma, subject 1, 16 min after 2.5 mg IV bolus sildenafil
  N-desmethyl Sildenafil Concentration: 1.21 ng/mL
[1]; plasma, subject 1, 30 min after 2.5 mg IV bolus sildenafil
  N-desmethyl Sildenafil Concentration: BLQ
[1]; plasma, subject 1, 60 min after 2.5 mg IV bolus sildenafil
  N-desmethyl Sildenafil Concentration: 2.26 ng/mL
[1]; plasma, subject 1, 88 min after 2.5 mg IV bolus sildenafil
  N-desmethyl Sildenafil Concentration: 2.10 ng/mL
[1]; plasma, subject 1, 120 min after 2.5 mg IV bolus sildenafil
  N-desmethyl Sildenafil Concentration: 2.49 ng/mL
[1]; plasma, subject 1, 178 min after 2.5 mg IV bolus sildenafil
  N-desmethyl Sildenafil Concentration: 2.64 ng/mL
[1]; plasma, subject 1, 242 min after 2.5 mg IV bolus sildenafil
  N-desmethyl Sildenafil Concentration: 2.19 ng/mL
[1]; plasma, subject 1, 360 min after 2.5 mg IV bolus sildenafil
  N-desmethyl Sildenafil Concentration: 2.00 ng/mL
[1]; plasma, subject 1, 480 min after 2.5 mg IV bolus sildenafil
  N-desmethyl Sildenafil Concentration: 1.53 ng/mL
[1]; plasma, subject 2, 15 min after 2.5 mg IV bolus sildenafil
  N-desmethyl Sildenafil Concentration: BLQ
[1]; plasma, subject 2, 30 min after 2.5 mg IV bolus sildenafil
  N-desmethyl Sildenafil Concentration: BLQ
[1]; plasma, subject 2, 60 min after 2.5 mg IV bolus sildenafil
  N-desmethyl Sildenafil Concentration: BLQ
[1]; plasma, subject 2, 90 min after 2.5 mg IV bolus sildenafil
  N-desmethyl Sildenafil Concentration: BLQ
[1]; plasma, subject 2, 122 min after 2.5 mg IV bolus sildenafil
  N-desmethyl Sildenafil Concentration: BLQ
[1]; plasma, subject 2, 180 min after 2.5 mg IV bolus sildenafil
  N-desmethyl Sildenafil Concentration: 1.06 ng/mL
[1]; plasma, subject 2, 240 min after 2.5 mg IV bolus sildenafil
  N-desmethyl Sildenafil Concentration: BLQ
[1]; plasma, subject 2, 360 min after 2.5 mg IV bolus sildenafil
  N-desmethyl Sildenafil Concentration: BLQ
[1]; plasma, subject 2, 480 min after 2.5 mg IV bolus sildenafil
  N-desmethyl Sildenafil Concentration: BLQ
[1]; plasma, subject 2, all times except 180 minutes after sildenafil injection
  metabolite concentrations: unmeasurable
[2]; CTP class A and B cirrhosis
  N-desmethyl sildenafil AUC increased compared to healthy subjects: 154%
  mean Cmax of N-desmethyl sildenafil increased compared to normal controls: 87%
[2]; healthy subjects
  N-desmethyl sildenafil AUC/sildenafil AUC: 52%
[2]; subjects with CTP Class A and B cirrhosis
  N-desmethyl sildenafil AUC/sildenafil AUC: 71%

## CCCc1nn(C)c2c(=O)[nH]c(-c3cc(S(=O)(=O)N4CCN(C)CC4)ccc3OCC)nc12 [Sildenafil, sildenafil]
[1]; second value, for CL 14.9 L/hr vs 40.8 L/hr
  clearance lower than mean in healthy volunteers: 71%
[1]; subject 1 (first value)
  observed maximum concentration of plasma sildenafil: 35 ng/mL
[1]; subject 2 (second value)
  observed maximum concentration of plasma sildenafil: 20.6 ng/mL
[3]
  dose-corrected mean Cmax: 26.6 ng/mL
  mean half-life: 3.9 h
[2]; CTP class A and B cirrhosis, single 50 mg oral dose
  mean clearance of sildenafil reduced compared to normal controls: 46%
[4]
  tolerability / safety of IV sildenafil: without side effects
[4]; listed as sildenafil
  tolerability / safety of IV sildenafil: without adverse events; also recorded: safe and tolerable; also recorded: can be safely administered
[4]; forty-eight hours after sildenafil injection
  adverse events reported at interview: did not report any adverse events
[4]; [5]
  Heart Rate: 53
  Mean Arterial Pressure: 75 mmHg
[4]; [6]
  Heart Rate: 53
  Mean Arterial Pressure: 78 mmHg
[4]; [7]
  Heart Rate: 55
  Mean Arterial Pressure: 78 mmHg
[4]; [8]
  Heart Rate: 51
  Mean Arterial Pressure: 75 mmHg
[4]; [9]
  Heart Rate: 50
  Mean Arterial Pressure: 79 mmHg
[4]; [10]
  Heart Rate: 50
  Mean Arterial Pressure: 78 mmHg
[4]; [11]
  Heart Rate: 53
  Mean Arterial Pressure: 83 mmHg
[4]; [12]
  Heart Rate: 54
  Mean Arterial Pressure: 83 mmHg
[4]; subject 1, at 16 and 120 minutes after sildenafil injection
  lowest MAP observed: 75
[4]; [13]
  Heart Rate: 98
  Mean Arterial Pressure: 69 mmHg
[4]; [14]
  Heart Rate: 98
  Mean Arterial Pressure: 73 mmHg
[4]; [15]
  Heart Rate: 98
  Mean Arterial Pressure: 75 mmHg
[4]; [16]
  Heart Rate: 90
  Mean Arterial Pressure: 81 mmHg
[4]; [17]
  Heart Rate: 97
  Mean Arterial Pressure: 80 mmHg
[4]; [18]
  Heart Rate: 93
  Mean Arterial Pressure: 75 mmHg
[4]; [19]
  Heart Rate: 92
  Mean Arterial Pressure: 72 mmHg
[4]; [20]
  Heart Rate: 94
  Mean Arterial Pressure: 75 mmHg
[4]; subject 2, at 15 minutes after sildenafil injection
  lowest MAP: 69 mmHg
[4]; up to 9 hours after sildenafil injection
  adverse events: No adverse events

Reference: PMC4623880 (Digestive diseases and sciences, 2015)
